# Experimental data reported in paper PMC12129716, “Isolation of a Unique Monoterpene Diperoxy Dimer From Ziziphora clinopodioides subsp. bungeana Together With Triterpenes With Antidiabetic Properties” (Phytochemical Analysis, 2025).
# “Also recorded” adds a separate entry of the source. Read-outs that look alike come from different tables or passages of the source.
# Columns and labels:
# α‐glucosidase [1] = assay: α-Glucosidase inhibitory assay (p-nitrophenyl-α-D-glucopyranoside, microplate reader); type: biochemical; conditions: mean ± SEM, three independent experiments in triplicate
# Procedure: After incubation (15 min, 37°C), the reaction was initiated by adding 20 μL of 2.5‐mM p‐nitrophenyl‐α‐D‐glucopyranoside. After an additional 15 min at 37°C, the reaction was stopped with 80 μL of 0.2‐M Na2CO3. The released p‐nitrophenol was quantified spectrophotometrically at λ 405 nm using a microplate reader. One set of mixtures prepared with an equivalent volume of methanol instead of the test samples was used as a control. Another set of mixtures prepared with an equivalent volume of phosphate buffer instead of the enzyme was used as a blank. The inhibition of the enzyme (%) was calculated according to the formula: […]. […] The results are summarized in Table 2 and expressed as the mean ± SEM for three independent experiments measured in triplicate.
# [2] = molecular target: protein tyrosine phosphatase 1B (PTP1B); conditions: cited from earlier work
# GLUT4 [3] = assay: GLUT4 translocation to plasma membrane fraction in C2C12 myotubes (Western blot); type: cell-based, mouse; conditions: 5 μM, 24 h, C2C12 differentiated myotubes, vs DMSO control
# Procedure: The C2C12 cell line was incubated in containers with a surface area of 75 cm^2 (tissue‐culture treated) to 100% confluence in full serum DMEM High Glucose medium. Then the culture medium was changed to DMEM High Glucose medium, supplemented with antibiotics, and 2% horse serum (Biosera) to start the differentiation of myoblasts into myocytes. The medium was renewed every 2 days, and the formation of myocytes was observed using a microscope. After 6 days of differentiation, the culture medium was changed to DMEM High Glucose serum‐free medium, and the test compounds were added at a non‐toxic concentration of 5 μM dissolved in DMSO. The effect of the test compounds on the viability of C2C12 myocytes was determined using a WST‐1 kit (Roche, Basel, Switzerland), according to the manufacturer's manual. The final concentration of DMSO in the medium was 0.1% (v/v). […]
# The effects of the test compounds on the protein expression of GLUT4 in the total cellular fraction and on GLUT4 translocation to the plasma membrane fraction were measured using PAGE and Western blot with specific antibodies. […]
# To quantify the effects of the test compounds on GLUT4 expression and translocation, the optical densities (OD) of the corresponding bands shown by Western blot analysis were calculated and expressed as a ratio of ODGLUT4 / ODβ‐actin for GLUT4 expression in whole‐cell lysates. […]
# L6 myotube cells = system: L6 myotube cells; parameters: method as in PMID 19548274; conditions: cited from earlier work
# GLUT4 [4] = system: GLUT4; parameters: method as in PMID 17201692; conditions: 3T3-L1 adipocytes; cited from earlier work
# α‐glucosidase [5] = conditions: cited from earlier work
% of inhibition (200 μM) (α‐glucosidase [1]),IC50 (α‐glucosidase [1]),Compound,also measured
49.9 ± 3.3%,> 200 µM,"CC1(C)CC[C@]2(C(=O)O)CC[C@]3(C)C(=CC(=O)C4[C@@]5(C)CC[C@H](O)C(C)(C)C5CC[C@]43C)C2C1 (some centres unmarked) [Compound 8, 11‐oxooleanolic acid]",–
64.4 ± 2.0%,45.3 ± 1 µM,"C=C(C)[C@@H]1CC[C@]2(C(=O)O)CC[C@]3(C)[C@H](CC[C@@H]4[C@@]5(C)CC[C@H](O)C(C)(C)[C@@H]5CC[C@]43C)[C@@H]12 [Compound 11, betulinic acid]","PTP1B IC50 [2]: 0.7 ± 0.03 µg/mL; IC50 ([2]; conversion of the μg/mL value, read-out: PTP1B IC50 (converted to μM)): 1.53 µM; GLUT4 translocation (GLUT4/ATPA1 ratio in plasma membrane fraction) (GLUT4 [3]): no activity"
67.5 ± 1.4%,–,"CC1(C)CC[C@]2(C(=O)O)CC[C@]3(C)C(=CC[C@@H]4[C@@]5(C)CC[C@H](O)C(C)(C)[C@@H]5CC[C@]43C)[C@@H]2C1 [Compound 10, oleanolic acid]",–
65.7 ± 4.1%,–,"C[C@H]1[C@H](C)CC[C@]2(C(=O)O)CC[C@]3(C)C(=CC[C@@H]4[C@@]5(C)CC[C@H](O)C(C)(C)[C@@H]5CC[C@]43C)[C@H]12 [Compound 9, ursolic acid]",IC50 ([2]; read-out: PTP1B IC50): 3.1 ± 0.2 µM; 2-deoxy-D-[3H]-glucose uptake increase (L6 myotube cells): 1.84 fold; Translocation of GLUT4 (GLUT4 [4]): enhanced
–,163 ± 15.4 µM,"C[C@@H]1CC[C@]2(C(=O)O)CC[C@]3(C)C(=CC(=O)C4[C@@]5(C)CC[C@H](O)C(C)(C)C5CC[C@]43C)C2[C@H]1C (some centres unmarked) [Compound 7, 11‐oxoursolic acid]",–

# Second part, the molecule before the results:
Compound,% of inhibition (200 μM) (α‐glucosidase [1]),IC50 (α‐glucosidase [1]),also measured
"CC1=C2C=C3CCC4C(C)(C)CCC[C@@]4(C)C3CC2OC1=O (some centres unmarked) [Compound 2, jolkinolide E]",25.0 ± 1.4%,> 200 µM,–
"CC1CC=C(C(C)(C)OOC23CC(C)CC=C2C(C)(C)OO3)C(=O)C1 (centres unmarked) [Compound 1, ziziphora diperoxy dimer]",6.0 ± 1.9%,> 200 µM,–
"C=C(C)[C@@H]1CC[C@]2(CO)CC[C@]3(C)[C@H](CC[C@@H]4[C@@]5(C)CC[C@H](O)C(C)(C)[C@@H]5CC[C@]43C)[C@@H]12 [Compound 3, betulin]",24.0 ± 6.0%,> 200 µM,–
"C=C(CO)[C@@H]1CC[C@]2(C(=O)O)CC[C@]3(C)C(CCC4[C@@]5(C)CC[C@H](O)C(C)(C)C5CC[C@]43C)C12 (some centres unmarked) [Compound 4, 30‐hydroxybetulinic acid]",34.0 ± 4.9%,> 200 µM,–
"C[C@@H]1[C@H](O)C[C@]2(C(=O)O)CC[C@]3(C)C(=CCC4[C@@]5(C)CC[C@H](O)C(C)(C)C5CC[C@]43C)C2[C@H]1C (stereo partly drawn) [Compound 6, 21α‐hydroxyursolic acid]",26.8 ± 2.1%,> 200 µM,–
"C[C@@H]1CC[C@]2(C(=O)O)CC[C@]3(C)C(=CC[C@@H]4[C@@]5(C)CC[C@H](O)C(C)(C)[C@@H]5CC[C@]43C)[C@@H]2[C@]1(C)O [Compound 5, pomolic acid]",41.9 ± 4.1%,> 200 µM,IC50 ([2]; read-out: PTP1B IC50): 3.9 ± 0.8 µM; GLUT4 translocation (GLUT4/ATPA1 ratio in plasma membrane fraction) (GLUT4 [3]): increased; also recorded: tripling; 2-deoxy-D-[3H]-glucose uptake increase (L6 myotube cells): 1.6 fold
CC1(C)[C@@H](O)CC[C@]2(C)[C@H]3C(=O)C=C4[C@@H]5C[C@@](C)(C(=O)O)CC[C@]5(C)CC[C@@]4(C)[C@]3(C)CC[C@@H]12 [glycyrrhetic acid],–,–,α-Glucosidase inhibitory activity (α‐glucosidase [5]): inactive
